The source of these data is paper PMC10901950, “Neuroprotective and Anti-inflammatory Effects of Rubiscolin-6 Analogs with Proline Surrogates in Position 2” (Neurochemical Research, 2023).

Square brackets hold non-standard residues; d marks the D form. Ends that are not written are not given here. Peptide text beside a SMILES is read from it. Dmt = Cc1cc(O)cc(C)c1C[C@H](N)C(=O)O; Inp = O=C(O)C1CCNCC1

A short description of test [1]: Ferric reducing antioxidant power (FRAP). The note with it: peptides 10 µM, 37 °C, 30 min, absorbance 593 nm; mean ± SEM. The method, then:
FRAP assay adapted to microscale with minor modifications was used to measure the ferric reducing ability of peptides. Acetate buffer (0.3 M, pH 3.6), 2,4,6-Tris(2-pyridyl)-s-triazine (TPTZ, 10 mM prepared in 40 mM HCl), and ferric solutions (20 mM) were freshly mixed at a ratio of 10:1:1 and place in a 96-well microplate. Then, 198 µL of FRAP reagent and 2 µL of the peptide sample was mixed and incubated at 37 °C in the dark for 30 min. The absorbance was measured at 593 nm using a microplate reader (Bioteck, Epoch/2 microplate reader, Winooski, VT, USA). The difference between the absorbance of the test sample and the blank reading was calculated and expressed as µM of FeSO4/g of the peptide. FeSO4 was used as standard.

Test [2] in a line: Oxygen radical absorption capacity (ORAC). The note with it: peptides 10 µM, AAPH 12 mM, fluorescein; mean ± SEM. The method, then: The ability of peptides to neutralize the peroxyl radicals was evaluated in ORAC according to the described method. Peptides (20 µL) and fluorescein (120 µL; 70 nM) were placed in a microplate well and pre-incubated for 15 min at 37 °C. Then, 60 µL of 2,2ʹ-azobis (2-amidino-propane) dihydrochloride (AAPH) as a radical generator was added in a final concentration of 12 mM. The fluorescence was read at wavelengths of 458 nm (excitation) and 520 nm (emission) and recorded every minute for 240 min. A blank using phosphate buffer instead of […] and a calibration curve using Trolox as standard (1–8 µM, final concentration) were also carried on in each assay. Final results were presented in µmol of Trolox equivalents/ µM peptide (µmol TE/ µM peptide).

Test [3] deals with SH-SY5Y cells. The experiment in a line: Intracellular ROS production in 6-OHDA-treated SH-SY5Y cells. The class given is cell-based, human. The note with it: 6-OHDA 100 µM; for decrease of ROS production stimulated by 6-OHDA: peptide at both 1 and 10 µM. The method, then:
The detection of ROS generated in injured cells was evaluated using the 5(6)-carboxy-2ʹ,7ʹ-dichlorofluorescein diacetate (carboxy-H2DCFDA) reagent (Invitrogen, Bleiswijk, Netherlands). After incubation, cells were washed with ice-cold Phosphate-Buffer Saline (PBS). Then, the carboxyl-H2DCFDA (100 µL, 20 µM) reagent was added and incubated for 1 h at 37 °C. Finally, the fluorescence intensity was measured at wavelengths of […], and ROS levels were presented in percentage of control (non-treated cells).

In test [4] the test system is SH-SY5Y cells. The experiment in a line: Mitochondrial membrane potential (JC-1) in 6-OHDA-treated SH-SY5Y cells. The class given is cell-based, human. The note with it: 6-OHDA 100 µM, 6 h. The method, then:
Mitochondrial function was assessed by monitoring changes in MMP (∆Ψm) using the fluorescent probe, JC-1 fluorescence dye (5,5′,6,6′-tetrachloro-1,1′,3,3′-tetraethyl-imidacarbocyanine iodide, Molecular Probes, T3168, Eugene, Oregon, USA). The assay was performed according to the method described by Silva et al.. Briefly, SH-SY5Y cells were exposed 6 h to 6-OHDA (100 μM) in the presence or absence of peptides. After incubation, cells were washed with ice-cold PBS, and then JC-1 reagent (3 µM, 200 µL) was added for 15 min at 37 °C. Afterwards, JC-1 was removed, and cells were washed with PBS. The formation of JC-1 aggregates (490 nm of excitation and 590 nm of emission) and the monomeric form of JC-1 (490 nm of excitation and 530 nm of emission) was accompanied simultaneously in the plate reader for 30 min. Results were expressed as the ratio of the monomers/aggregates of JC-1 in the percentage of control.

A further test deals with mTOR. The experiment in a line: Western blot, mTOR phosphorylation in 6-OHDA-treated SH-SY5Y cells. The note with it: peptide 1 and 10 µM, 24 h. Format: cell-based, human. The method, then:
The neuroblastoma SH-SY5Y cells were grown in a 6-well plate and when 80–90% confluent treated with 6-OHDA (100 µM) for 24 h. Then cells were stimulated with peptides for 2.5, 5, 7.5 and 10 min (for AKT) or 24 h (for mTOR). When needed, a 30 min pre-incubation step with LY 294002 was included before analogs and 6-OHDA addition. Stimulation was terminated by aspiration of the medium. Cells were washed 2 times with ice-cold PBS, and then 200 µL of ice-cold lysis buffer [150 mM NaCl, 20 mM Tris–HCl, glycerol, 5 mM EDTA, 0.5 mM phenylmethylsulphonylfluoride (PMSF), 10% Triton X-100, 100 mM protease inhibitors, pH 7.4] was added. Cells were incubated on ice for 15 min. Lysates were then centrifuged at 12,000×g for 10 min at 4 °C, and the supernatants were used as the total cell lysates. The protein content in the supernatants was quantified using the Bio-Rad protein assay kit. […] Following six washes with TBS-T, the protein bands were detected with the Clarity Western ECL reagent from Bio-Rad. The band intensity was quantified by NIH ImageJ densitometric analysis. For quantification, specific phosphorylation was calculated as the ratio of phosphorylated AKT or mTOR signals to the total Akt or mTOR signal detected. […]

Take YPLDLF [R-6, rubiscolin-6]: the “FRAP, ability to reduce iron ions” value in test [1] is reported as 1.09 ± 0.20 µM Eq. FeSO4/g of peptide. Besides, the “ORAC, ability to neutralize the peroxyl radicals” value in test [2] is reported as 2789 ± 131.6 µmol Eq. Trolox/g of peptide. In the test with SH-SY5Y cells [3] (peptide 0.1 µM, 6 h), the “decrease of intracellular ROS levels stimulated by 6-OHDA” value is “about 70%”. In the test with SH-SY5Y cells [4] (peptide 0.1-10 µM), the “effect on MMP changes caused by the neurotoxin” value is “markedly decreased”.

On to `CC(C)C[C@H](NC(=O)C1CCN(C(=O)[C@@H](N)Cc2ccc(O)cc2)CC1)C(=O)N[C@@H](CC(=O)O)C(=O)N[C@@H](CC(C)C)C(=O)N[C@@H](Cc1ccccc1)C(=O)O` [analog 3, Tyr-Inp-Leu-Asp-Leu-Phe-OH] (H-Y[Inp]LDLF-OH), for which, in the test with SH-SY5Y cells [3] (6 h), the “decrease of ROS production stimulated by 6-OHDA” value is on record as “about 60%”.

Turning to “YPLDLF-NH2 [analog 6, Tyr-Pro-Leu-Asp-Leu-Phe-NH2]”, the “FRAP, ability to reduce iron ions” value in test [1] is 0.87 ± 0.22 µM Eq. FeSO4/g of peptide. Further, the “ORAC, ability to neutralize the peroxyl radicals” value in test [2] is 3143 ± 164.4 µmol Eq. Trolox/g of peptide.

Regarding `Cc1cc(O)cc(C)c1C[C@H](N)C(=O)N1CCC(C(=O)N[C@@H](CC(C)C)C(=O)N[C@@H](CC(=O)O)C(=O)N[C@@H](CC(C)C)C(=O)N[C@@H](Cc2ccccc2)C(=O)O)CC1` [analog 5, Dmt-Inp-Leu-Asp-Leu-Phe-OH] (H-[Dmt][Inp]LDLF-OH), the “decrease of ROS production stimulated by 6-OHDA” value with SH-SY5Y cells [3] (6 h) is reported as “about 60%”. For the same molecule, the “phosphorylated mTOR compared with the 6-OHDA-injured group” value in the test on mTOR is listed as “significant increase”.

For the molecule `Cc1cc(O)cc(C)c1C[C@H](N)C(=O)N1CCC[C@H]1C(=O)N[C@@H](CC(C)C)C(=O)N[C@@H](CC(=O)O)C(=O)N[C@@H](CC(C)C)C(=O)N[C@@H](Cc1ccccc1)C(=O)O` [analog 1, Dmt-Pro-Leu-Asp-Leu-Phe-OH] (H-[Dmt]PLDLF-OH), the “effect on ROS production” value in the test on SH-SY5Y cells [3] (peptide 10 µM) is recorded as “couldn’t decrease”. For the same molecule, in the test with SH-SY5Y cells [4] (peptide 10 µM), the “effect on MMP depolarization” value is recorded as “couldn’t decrease”.

As to `CC(C)C[C@H](NC(=O)C1CCN(C(=O)[C@@H](N)Cc2ccc(O)cc2)CC1)C(=O)N[C@@H](CC(=O)O)C(=O)N[C@@H](CC(C)C)C(=O)N[C@@H](Cc1ccccc1)C(N)=O` [analog 7, Tyr-Inp-Leu-Asp-Leu-Phe-NH2] (H-Y[Inp]LDLF-NH2), the “decrease of ROS production stimulated by 6-OHDA” value with SH-SY5Y cells [3] (6 h) is recorded as “about 60%”. In addition, in the test with mTOR, the “phosphorylated mTOR compared with the 6-OHDA-injured group” value is on record as “significant increase”.
